{"source": "patent US20240207264A1", "about": "“PHARMACEUTICAL COMPOSITIONS COMPRISING INHIBITORS OF THE ANDROGEN RECEPTOR AND USES THEREOF” (ESSA PHARMA INC., priority 2021, published 2024)", "key": {"[1]": {"assay": "Amorphous solubility by slow addition from organic stock, UV/scattering detection", "format": "physicochemical", "conditions": "for solubility: kinetic from dmso stock", "excerpt": "Solubility: Generally, the solubility of an amorphous form is higher than that of the corresponding crystal form, due to the lack of crystalline lattice forces in the amorphous state. Solubility of the amorphous form of Compound A was studied by slow addition of the amorphous form from an organic stock solution into the pH 6.5 phosphate-buffered saline (PBS) solution or 0.5% wt simulated intestinal fluid (SIF) in pH 6.5 PBS. When the amorphous solubility is reached, a drug-rich phase forms which typically scatters light (e.g., liquid-liquid phase separation or LLPS), which can be detected by scattering of UV/Visible light and/or by dynamic light scattering (DLS).\nNo scattering event prior to crystallization was observed."}, "[2]": {"assay": "Gastric-to-intestinal buffer (G-IB) transfer dissolution test", "format": "physicochemical", "conditions": "0.5% SIF in PBS pH 6.5, dose 150 μgA/mL", "protocol": "Dissolution: The crystalline Compound A and the five SDD compositions (A-E from Example 4) is were tested in a 2-stage dissolution test designed to evaluate dissolution rate as well as inhibition of crystallization on transfer from simulated gastric to simulated intestinal media. Additionally, SDD composition E was also tested with additional HPMCAS-HF powder at a ratio of 1:1 SDD/HPMCAS-HF (SDD composition F).\nFor the gastric-to-intestinal buffer (G-IB) transfer dissolution test, pH 2 (“gastric”) media was added to each sample at a target dose concentration of 300 μgA/mL. After 30 minutes of exposure to gastric media, concentrated simulated intestinal buffer (TB) is added to reach a final composition of 0.5% SIF in PBS, pH 6.5 at half the dose concentration (150 μgA/mL). The concentration was monitored by U fiber optic probes in situ as well as being assessed by either microcentrifugation (15,800×g) or ultracentrifugation (380,000×g).\nThe microcentrifuge separates the precipitate (undissolved drug) and total solubilized drug Total solubilized drug consists of three solubilized species: freely solubilized drug (“free drug”), drug associated with bile salt micelles (“micelle bound drug”), and drug in small aggregate roughly 50-300 nm in size (“colloidal drug”). The ultracentrifuge further separates the colloidal drug and the supernatant contains only free drug and micelle bound drug. […]"}, "[3]": {"system": "HID28", "assay": "Enzalutamide resistant patient-derived xenograft (PDX) model HID28", "format": "in vivo, nude mice", "conditions": "HID28 PDX (AR+ PSA+), castrated male mice, 15 mg/kg, Solution, qd28", "protocol": "(§1) Compound A's activity was measured in a variety of castrate-sensitive and castrate-resistant prostate cancer (CRPC) xenograft models (Table 32).\nFor example, intact male nude mice were engrafted with HID28 tumor fragments and once tumors reached ˜150 mm^3 the mice were castrated. The mice were enrolled in the experiment once the tumors started to regrow, 10 days post-castration. Compound A was tested in the HID28 PDX model at 60 mg/kg, QD for 28 days using SDD formulation with HPMCAS-H in 0.5% Methocel A4M in water.\nMean tumor volume in castrated nude mice bearing enzalutamide resistant patient-derived xenograft (PDX) model HID28 was measured after oral treatment with solid dispersion composition of Compound A or enzalutamide for 28 days (n=6-7 per group) is shown in FIG. 16B."}, "[4]": {"system": "LNCaP95", "assay": "LNCaP95 prostate cancer xenograft model", "format": "in vivo", "conditions": "LNCaP95 (high level AR-V7), castrated male mice, 15 mg/kg, Solution, qd24", "protocol": "as §1"}, "[5]": {"system": "LNCaP", "assay": "LNCaP prostate cancer xenograft model", "format": "in vivo", "conditions": "LNCaP (AR FL), castrated male mice, 30 mg/kg, Solution, qd24", "protocol": "as §1"}, "[6]": {"system": "VCaP tumors", "assay": "VCaP prostate cancer xenograft model", "format": "in vivo, SCID Beige male mice", "conditions": "VCaP (amplified AR, some AR-V7), castrated male mice, 15 mg/kg, Solution, qd24"}, "[7]": {"system": "PC-3", "assay": "PC-3 prostate cancer xenograft model", "format": "in vivo", "conditions": "PC-3 (non functional AR), intact male mice, 15 mg/kg, Solution, qd28", "protocol": "as §1"}}}
{"smiles": "CC(C)(c1ccc(OCc2ccnc(NS(C)(=O)=O)n2)cc1)c1cc(Cl)c(OCCCl)c(C#N)c1", "note": "[amorphous form of Compound A, N-(4-((4-(2-(3-chloro-4-(2-chloroethoxy)-5-cyanophenyl)propan-2-yl)phenoxy)methyl)pyrimidin-2-yl)methanesulfonamide]", "values": [{"measurement": "solubility", "setting": "[1]; 0.5% wt simulated intestinal fluid (SIF) in pH 6.5 PBS, fassgf or other biorelevant, 0.5% SIF (pH 6.5)", "result": "> 25", "unit": "µg/mL"}, {"measurement": "solubility", "setting": "[1]; pH 6.5 phosphate-buffered saline (PBS), aqueous buffer, pH 6.5 PBS", "result": "> 2.5", "unit": "µg/mL"}, {"measurement": "amorphous solubility relative to crystalline solubility", "setting": "[1]; simulated intestinal media", "result": "at least 20 ×"}]}
{"smiles": "CC(C)(c1ccc(OCc2ccnc(NS(C)(=O)=O)n2)cc1)c1cc(Cl)c(OCCCl)c(C#N)c1", "note": "[Crystalline Compound A, N-(4-((4-(2-(3-chloro-4-(2-chloroethoxy)-5-cyanophenyl)propan-2-yl)phenoxy)methyl)pyrimidin-2-yl)methanesulfonamide]", "values": [{"measurement": "Concentration, IB (90 min)", "setting": "[2]", "result": 7, "unit": "μgA/mL"}]}
{"smiles": "CNC(=O)c1ccc(N2C(=S)N(c3ccc(C#N)c(C(F)(F)F)c3)C(=O)C2(C)C)cc1F", "note": "[Enzalutamide, enzalutamide, reference compound]", "values": [{"measurement": "TGI (Tumor Growth Inhibition)", "setting": "[3]", "result": "<0", "unit": "%"}, {"measurement": "TGI (Tumor Growth Inhibition)", "setting": "[4]", "result": "<0", "unit": "%"}, {"measurement": "TGI (Tumor Growth Inhibition)", "setting": "[5]", "result": ">100", "unit": "%"}, {"measurement": "TGI (Tumor Growth Inhibition)", "setting": "[6]", "result": 66, "unit": "%"}, {"measurement": "TGI (Tumor Growth Inhibition)", "setting": "[7]", "result": 0, "unit": "%"}]}
